Results taken from ChEMBL document CHEMBL1143399, “A small-molecule nitroimidazopyran drug candidate for the treatment of tuberculosis” (Nature, 2000).
Calls of active or inactive are those of the source. The rule behind the calls is not given here.

Tests used:
Format in all cases: functional, organism-based
Conditions in all cases: variant bovis BCG
[1] = test system: Mycobacterium tuberculosis; test: Inhibition of protein synthesis in log phase Mycobacterium bovis BCG assessed as [35S] incorporation after 3 hrs
[2] = test system: Mycobacterium tuberculosis; test: Inhibition of lipid synthesis in log phase Mycobacterium bovis BCG assessed as [14C] acetate incorporation after 3 hrs by chromatography
[3] = test system: Mycobacterium tuberculosis; test: Inhibition of nucleic acid synthesis in Mycobacterium bovis BCG

O=[N+]([O-])c1cn2c(n1)OC[C@@H](OCc1ccc(OC(F)(F)F)cc1)C2 [PRETOMANID]
Activity [1]: Active
Activity [2]: inactive
Activity [3]: inactive
